US7994094B2, “N-pyridylpiperidine compound, method for producing the same, and pest control agent” (Otsuka Agritechno Co., Ltd., priority 2006, dated 2011)
Where two headings read alike, the source gives them in different places.

What was measured:
[1] = system: female adult citrus red mites; assay: whole plant or invertebrate; assay type: in vivo; conditions: Panonychus citri, in Citrus x aurantium, 48 h, read-out: mortality of the female adult citrus red mites
Protocol: Thereafter, 10 female adult citrus red mites were released on the Citrus aurantium leaf on the cup. The next day, a miticidal formulation containing a compound of the invention (100 ppm) was prepared by adding an aqueous solution of Sorpol 355 (manufactured by Toho Kagagu Co., Ltd.) to an acetone solution containing the compound of the invention. […] The mortality of the female adult citrus red mites was determined two days after the spraying.

[2] = system: female adult Kanzawa spider mites; assay: whole plant or invertebrate; assay type: in vivo; conditions: Tetranychus kanzawai, in Phaseolus vulgaris, 48 h, read-out: mortality of the female adult Kanzawa spider mites
Protocol: A kidney bean leaf (3.5 cm×4.5 cm) was placed with the rear side up on the sufficiently soaked non-woven fabric. Thereafter, 20 female adult Kanzawa spider mites were released on the kidney bean leaf on the cup. […] The mortality of the female adult Kanzawa spider mites was determined two days after the spraying.

citrus rust mites = conditions: sprayed on Citrus aurantium leaf
Text: A plastic cup (trade name: KP-120, manufactured by Konoike Plastic Co., Ltd., Iwata) was filled with tap water, and covered with a lid having a notch cut therein. A piece (4.5×5.5 cm) of non-woven fabric having a slit of about 4 cm in length, the slit being made parallel to the longer side of the fabric at a distance of 1 cm from the edge, was placed on the lid. The 4-cm long, 1-cm wide portion of the fabric was suspended inside the plastic cup through the notch. A Citrus aurantium leaf (3 cm×3 cm) was placed with the front side up on the sufficiently soaked non-woven fabric. To prevent drying and escape of mites, the leaf was covered with a filter paper (diameter: 5 cm, No. 2, Advantec Toyo Kaisha, Ltd.) having two holes of 10 mm in diameter. A leaf on which the citrus rust mites were bred was cut out into pieces with a cork borer (diameter: 2 mm), and the leaf pieces were placed with the front side up on the Citrus aurantium leaf on the non-woven fabric. The next day, the dry leaf pieces were removed. […] Subsequently, 4 ml of a miticidal formulation containing a test compound (100 ppm or 200 ppm), which was prepared according to Test Example 1, was sprayed over the leaf with a spray gun (PB-308 Piece Bon, Olympos, Osaka; 1 kgf/cm^2). […] The mortality of the citrus rust mites was determined two days after the spraying. […]

[3] = system: Two-spotted spider mites (eggs); assay: Ovicidal test on two-spotted spider mites (Test Example 2); assay type: in vivo, Tetranychus urticae; conditions: 500 ppm sprayed on kidney bean leaf; six days after the spraying
Protocol: A kidney bean leaf (about 3.5×4.5 cm) was placed on the sufficiently soaked non-woven fabric. Female adult two-spotted spider mites (about 5 mites) were released on the leaf, and the leaf was placed in a thermostatic chamber (25±2° C., 16L8D). […] The ovicidal rate of the two-spotted spider mites was determined six days after the spraying.

Two-spotted spider mites = assay: whole plant or invertebrate; assay type: in vivo; conditions: Tetranychus urticae, in Phaseolus vulgaris, 48 h, read-out: mortality of the two-spotted spider mites, 500 ppm sprayed on kidney bean leaf; two days after the spraying
Protocol: A kidney bean leaf (about 3.5×4.5 cm) was placed on the sufficiently soaked non-woven fabric. Two-spotted spider mites (about twenty mites) were released on the leaf, and the leaf was placed in a thermostatic chamber (25±2° C., 16L8D). The next day, a miticidal formulation containing a compound of the invention (500 ppm) was prepared by adding an aqueous solution of Sorpol 355 (manufactured by Toho Kagagu Co., Ltd.) (100 ppm) to an acetone solution containing the compound of the invention. […] The mortality of the two-spotted spider mites was determined two days after the spraying.

C[C@@H]1CN(c2ccc(C(F)(F)F)cn2)CC[C@H]1Oc1cc(-c2cc(F)cc(F)c2)n[nH]1 (relative stereo) [1a-296, trans-4-[3-(3,5-difluorophenyl)pyrazol-5-yloxy]-3-methyl-1-[5-(trifluoromethyl)-2-pyridyl]-piperidine]
melting point: 136.9 to 137.6 °C

C[C@@H]1CN(c2ccc(C(F)(F)F)cn2)CC[C@H]1Oc1cc(-c2cc(F)cc(F)c2)nn1CC1OCCO1 (relative stereo) [1a-301, trans-4-[1-(1,3-dioxolan-2-yl)methyl-3-(3,5-difluorophenyl)pyrazol-5-yloxy]-3-methyl-1-[5-(trifluoromethyl)-2-pyridyl]-piperidine]
mortality at 100 ppm [1]: 100%
mortality at 100 ppm [2]: 100%

CCCCn1nc(C(F)(F)F)cc1OC1CCN(c2ccc(C(F)(F)F)cn2)CC1 [1a-17, 4-[1-butyl-3-(trifluoromethyl)pyrazol-5-yloxy]-1-[5-(trifluoromethyl)-2-pyridyl]-piperidine]
mortality at 100 ppm [2]: 100%

CC(C)(C)n1nc(C(F)(F)F)cc1OC1CCN(c2ccc(C(F)(F)F)cn2)CC1 [1a-26]
Insect mortality (%) (citrus rust mites; 100 ppm test compound): 100%
Insect mortality (%) (citrus rust mites; 200 ppm test compound): 67%

FC(F)(F)c1ccc(N2CCC(Oc3cc(C(F)(F)F)nn3-c3cccc(Cl)c3)CC2)nc1 [1a-62, 4-[1-(3-chlorophenyl)-3-(trifluoromethyl)pyrazol-5-yloxy]-1-[5-(trifluoromethyl)-2-pyridyl]-piperidine]
mortality at 100 ppm [1]: 100%

Cn1nc(-c2cc(Cl)cc(Cl)c2)cc1OC1CCN(c2ccc(C(F)(F)F)cn2)CC1 [1a-107, 4-[3-(3,5-dichlorophenyl)-1-methylpyrazol-5-yloxy]-1-[5-(trifluoromethyl)-2-pyridyl]-piperidine]
melting point: 161.8 to 162.4 °C

Cn1nc(C(F)(F)F)cc1OC1CCN(c2ccc(C(F)(F)F)cn2)CC1(C)C (centres unmarked) [1a-215, 3,3-dimethyl-4-[1-methyl-3-(trifluoromethyl)pyrazol-5-yloxy]-1-[5-(trifluoromethyl)-2-pyridyl]-piperidine]
melting point: 102.5 to 103 °C

CCCCn1nc(C(F)(F)F)cc1S(=O)(=O)C1CCN(c2ccc(C(F)(F)F)cn2)CC1 [1a-218, 4-[1-butyl-3-(trifluoromethyl)pyrazol-5-ylsulfonyl]-1-[5-(trifluoromethyl)-2-pyridyl]-piperidine]
melting point: 105.3 to 105.6 °C

CCCCn1nc(-c2ccc(F)cc2)cc1OC1CCN(c2ccc(C(F)(F)F)cn2)CC1 [1a-236]
ovicidal rate of the two-spotted spider mites [3]: 100%

FC(F)(F)c1ccc(N2CCC(Oc3cc(C(F)(F)F)n[nH]3)CC2)nc1 [1a-245, 4-[3-(trifluoromethyl)pyrazol-5-yloxy]-1-[5-(trifluoromethyl)-2-pyridyl]-piperidine]
melting point: 133.8 to 134.5 °C

Cc1ccc(-n2nc(C(F)(F)F)cc2OC2CCN(c3ccc(C(F)(F)F)cn3)CC2)nc1 [1a-247]
ovicidal rate of the two-spotted spider mites [3]: 100%

CCCCn1nc(-c2cc(Cl)ncc2Cl)cc1OC1CCN(c2ccc(C(F)(F)F)cn2)CC1 [1a-249]
ovicidal rate of the two-spotted spider mites [3]: 100%

CCOC(=O)n1nc(C(F)(F)F)cc1OC1CCN(c2ccc(C(F)(F)F)cn2)CC1 [1a-288, 4-[1-ethoxycarbonyl-3-(trifluoromethyl)pyrazol-5-yloxy]-1-[5-(trifluoromethyl)-2-pyridyl]-piperidine]
mortality at 500 ppm (Two-spotted spider mites): ≥ 50%

FC(F)(F)CCCn1nc(OC2CCN(c3ccc(C(F)(F)F)cn3)CC2)cc1C(F)(F)F [1b-49]
ovicidal rate of the two-spotted spider mites [3]: 100%

COC(Cn1nc(O[C@@H]2[C@@H]3CC[C@H]2CN(c2ccc(C(F)(F)F)cn2)C3)cc1C(F)(F)F)OC [1b-52, 8β-[1-(2,2-dimethoxy)ethyl-5-(trifluoromethyl)pyrazol-3-yloxy]-1-[5-(trifluoromethyl)-2-pyridyl]-3-azabicyclo[3.2.1]octane]
mortality at 500 ppm (Two-spotted spider mites): ≥ 50%
